Reference: US9364496B2 (ONCOGENEX TECHNOLOGIES INC., priority 2013, dated 2016)
Several values for one entry are separate records, joined by “and”; a condition that tells them apart may be missing. Equal entries are not always repeated. Marks after values point to notes of the source that are not given here. Oligonucleotides are written 5' to 3', each unit as a sugar letter and its base; * is a phosphorothioate linkage, no mark a phosphodiester; rarer units and linkages stand in square brackets, end groups in braces. Plain capitals give the bases only. e = 2'-O-(2-methoxyethyl) (MOE); [5mC] = 5-methylcytosine; d = 2'-deoxy (DNA)

How the values were obtained:
[1] = in vivo
[2] = test system: RPMI 8226 (human myeloma) xenograft; assay: In vivo activity of custirsen (TV-1011), different doses and regimens with Bortezomib, RPMI 8226 xenograft (Example 15); conditions: for volume / weight / % of baseline (weight) / Δ % (weight) / Δ weight: group 8: TV-1011 30 mg/kg qd*5, 40 mg/kg biwk
Procedure: 120 CB.17 SCID female mice, 4-6 weeks old, 16-20 grams, obtained from Harlan animal breeding center.
Cells (originated from ATCC) were cultured on RPMI medium. Cell suspension was centrifuged and resuspended in 50% Matrigel/HBSS to a final concentration of 7×10^7 cells/ml. The suspension was implanted s.c. in the right flank of the anesthetized mouse at a volume of 100 μl.
Seven ml saline were added to the original vial containing 3.5 mg powder resulting in 0.5 mg/ml. Three ml of this solution were added to 27 ml saline to receive 0.05 mg/ml concentration. […] 28.5 ml of 4 mg/ml were added to 9.5 saline to receive 3 mg/ml.
Mice were implanted subcutaneously, with 7×10^6 RPMI 8226 cells/mouse (in 50% Martigel/HBSS) on Day 0. On day 21, mice were sorted by the optimal average tumor volume (˜130 mm3) and were allocated into eight groups of 10 mice each.
The treatment started on day 21 post implant, 0.2 ml per 20 grams v/w.
[formula] The analysis of weight gain and tumor volume progression was made using one-way ANOVA followed by Tukey post-hoc comparisons.

breast cancer = assay type: in vivo, human; conditions: each group; loading doses then custirsen with a chemotherapeutic agent
Source text: At least 50 breast cancer patients are separated into two groups.

myeloma = assay type: in vivo, human; conditions: each group; loading doses then custirsen with a chemotherapeutic agent
Source text: At least 50 myeloma patients are separated into two groups.

NSCLC = assay type: in vivo, human; conditions: each group; loading doses then custirsen with a chemotherapeutic agent
Source text: At least 50 NSCLC patients are separated into two groups.

melanoma = assay type: in vivo, human; conditions: each group; loading doses then custirsen with a chemotherapeutic agent
Source text: At least 50 melanoma patients are separated into two groups.

renal cancer = assay type: in vivo, human; conditions: each group; loading doses then custirsen with a chemotherapeutic agent
Source text: At least 50 renal cancer patients are separated into two groups.

[3] = TV-1011 alone 30 mg/kg ip qd*5, then 40 mg/kg biwk, day 62
[4] = Day 21 (baseline), group Mean, n 10
[5] = Day 21 (baseline), individual animals
[6] = Day 28 vs Day 21, group Mean, n 10
[7] = Day 28 vs Day 21, individual animals
[8] = Day 33 vs Day 21, group Mean, n 10
[9] = Day 33 vs Day 21, individual animals
[10] = Day 41 vs Day 21, group Mean, n 10
[11] = Day 41 vs Day 21, individual animals
[12] = group mean, n=10, day block 1 of 3
[13] = group mean, n=10, day block 2 of 3
[14] = group mean, n=10, day block 3 of 3
[15] = individual animals, day block 1 of 3
[16] = individual animals, day block 2 of 3
[17] = individual animals, day block 3 of 3

Q: Which “chills, patients” value [1] does the source give for “Custirsen: anti-clusterin antisense oligonucleotide CAGCAGCAGAGTCTTCATCAT, phosphorothioate backbone, 2′-O-methoxyethyl at nucleotides 1-4 and 18-21, 5-methylcytosines at 1, 4, 19 (antisense e[5mC]*eA*eG*e[5mC]*dA*dG*dC*dA*dG*dA*dG*dT*dC*dT*dT*dC*dA*eT*e[5mC]*eA*eT; listed as Homo sapiens)” here?
A: 35%

Q: What about the “fever, patients” value [1] of the same substance?
A: 50%

Q: And the “occurrence of grade 3/4 hepatic toxicity” value [1]?
A: rare

Q: What about the “severity of fever and chills/rigors” value [1] of the same substance?
A: usually mild (grade 1-2)

Q: What about the “time of appearance of fever and chills/rigors after the infusion” value [1] of the same substance?
A: 4 to 8 h

Q: And the “efficacy, in words” value ([2]; Custirsen 30 mg/kg qdx5 then 40 mg/kg biwk, alone)?
A: very efficacious

Q: What about the “effect of continuous treatment versus loading only” value ([2]; Custirsen with Velcade, maintained vs loading only) of the same substance?
A: dose-dependent and results in better outcome versus loading only

Q: And the “Max BW (mean) reduction” value ([2]; TV-1011 alone 30 mg/kg ip qd*5, then 40 mg/kg biwk, day 28)?
A: −0.5%

Q: And the “% TGI” value [2, 3]?
A: 67%

Q: And the “No. of CR” value [2, 3]?
A: 0

Q: What about the “No. of PR” value [2, 3] of the same substance?
A: 1

Q: And the “No. of TRD” value [2, 3]?
A: 0

Q: What about the “No. og nTRD” value [2, 3] of the same substance?
A: 0

Q: What about the “Δ mean tumor volume, (mean ± se)” value [2, 3] of the same substance?
A: 574 ± 118

Q: What about the “% TGI” value ([2]; TV-1011 alone 30 mg/kg ip qd*5, then 40 mg/kg biwk, day 62, listed as TV-1011) of the same substance?
A: 67*** %

Q: What about the volume [2, 4] of the same substance?
A: 129.3

Q: And the weight [2, 4]?
A: 18.8

Q: And the volume [2, 5]?
A: 107 and 113 and 116 and 119 and 123 and 128 and 131 and 138 and 147 and 172

Q: And the weight [2, 5]?
A: 21.4 and 17.7 and 20.5 and 15.9 and 19.6 and 20.3 and 17.9 and 16.6 and 20.1 and 17.8

Q: What about the “% of baseline (weight)” value ([2]; Day 28, group Mean, n 10) of the same substance?
A: 99.5%

Q: What about the volume ([2]; Day 28, group Mean, n 10) of the same substance?
A: 158.1

Q: And the weight ([2]; Day 28, group Mean, n 10)?
A: 18.7

Q: And the “% of baseline (weight)” value ([2]; Day 28, individual animals)?
A: 98.0% and 104.0% and 102.6% and 95.2% and 96.9% and 94.4% and 103.0% and 98.7% and 98.3%

Q: And the volume ([2]; Day 28, individual animals)?
A: 78 and 127 and 114 and 149 and 180 and 204 (2×) and 159 and 175 and 193

Q: What about the weight ([2]; Day 28, individual animals) of the same substance?
A: 21.0 and 118.5 and 21.3 and 16.3 and 18.7 and 19.6 and 16.9 and 17.1 and 19.9 and 17.5

Q: What about the “Δ % (weight)” value [2, 6] of the same substance?
A: −0.5%

Q: What about the Δ weight [2, 6] of the same substance?
A: −0.1

Q: And the “Δ % (weight)” value [2, 7]?
A: −2.0% and 4.4% and 4.0% and 2.6% and −4.8% and −3.1% and 5.6% and 3.0% and −1.3% and −1.7%

Q: And the Δ weight [2, 7]?
A: −0.4 and 0.8 (2×) and 0.4 and −0.9 and −0.6 and −1.0 and 0.5 and −0.3 (2×)

Q: And the “% of baseline (weight)” value ([2]; Day 33, group Mean, n 10)?
A: 101.6%

Q: What about the volume ([2]; Day 33, group Mean, n 10) of the same substance?
A: 147.0

Q: What about the weight ([2]; Day 33, group Mean, n 10) of the same substance?
A: 19.1

Q: And the “% of baseline (weight)” value ([2]; Day 33, individual animals)?
A: 97.8% and 108.3% and 108.1% and 95.9% and 94.0% and 101.3% and 98.3% and 105.5% and 99.9% and 107.3%

Q: And the volume ([2]; Day 33, individual animals)?
A: 132 and 131 and 120 and 116 and 167 and 157 and 100 and 154 and 206 and 186

Q: And the weight ([2]; Day 33, individual animals)?
A: 20.9 and 19.2 and 22.1 and 15.2 and 18.4 and 20.5 and 17.6 and 17.5 and 20.1 and 19.1

Q: What about the “Δ % (weight)” value [2, 8] of the same substance?
A: 1.6%

Q: And the Δ weight [2, 8]?
A: 0.3

Q: What about the “Δ % (weight)” value [2, 9] of the same substance?
A: −2.2% and 8.3% and 8.1% and −4.1% and −6.0% and 1.3% and −1.7% and 5.5% and −0.1% and 7.3%

Q: What about the Δ weight [2, 9] of the same substance?
A: −0.5 and 1.5 and 1.7 and −0.6 and −1.2 and 0.3 and −0.3 and 0.9 and 0.0 and 1.3

Q: What about the “% of baseline (weight)” value ([2]; Day 41, group Mean, n 10) of the same substance?
A: 106.8%

Q: What about the volume ([2]; Day 41, group Mean, n 10) of the same substance?
A: 184.3

Q: What about the weight ([2]; Day 41, group Mean, n 10) of the same substance?
A: 20.0

Q: What about the “% of baseline (weight)” value ([2]; Day 41, individual animals) of the same substance?
A: 101.4% and 112.9% and 111.2% and 108.4% and 102.9% and 102.3% and 105.9% and 112.3% and 106.7% and 103.9%

Q: And the volume ([2]; Day 41, individual animals)?
A: 76 and 144 and 140 and 139 and 336 and 249 and 152 and 185 and 223 and 200

Q: What about the weight ([2]; Day 41, individual animals) of the same substance?
A: 21.7 and 20.0 and 22.8 and 17.2 and 20.2 and 20.7 and 18.9 and 18.7 and 21.5 and 18.5

Q: And the “Δ % (weight)” value [2, 10]?
A: 6.8%

Q: And the Δ weight [2, 10]?
A: 1.2

Q: And the “Δ % (weight)” value [2, 11]?
A: 1.4% and 12.9% and 11.2% and 8.4% and 2.9% and 2.3% and 5.9% and 6.7% and 3.9%

Q: What about the Δ weight [2, 11] of the same substance?
A: 0.3 and 2.3 (2×) and 1.3 (2×) and 0.6 and 0.5 and 1.1 and 2.0 and 0.7

Q: What about the “% of baseline (weight)” value [2, 12] of the same substance?
A: 113.8%

Q: What about the volume [2, 12] of the same substance?
A: 344.4

Q: What about the “Δ % (weight)” value [2, 12] of the same substance?
A: 13.8%

Q: What about the Δ weight [2, 12] of the same substance?
A: 2.5

Q: And the weight ([2]; group mean, n=10, day block 1 of 3 (day head not shown))?
A: 21.3

Q: And the “% of baseline (weight)” value [2, 13]?
A: 109.2%

Q: What about the volume [2, 13] of the same substance?
A: 476.6

Q: And the weight [2, 13]?
A: 20.4

Q: What about the “Δ % (weight)” value [2, 13] of the same substance?
A: 9.2%

Q: What about the Δ weight [2, 13] of the same substance?
A: 1.7

Q: What about the “% of baseline (weight)” value [2, 14] of the same substance?
A: 111.5%

Q: What about the volume [2, 14] of the same substance?
A: 702.9

Q: What about the weight [2, 14] of the same substance?
A: 20.9

Q: What about the “Δ % (weight)” value [2, 14] of the same substance?
A: 11.5%

Q: What about the Δ weight [2, 14] of the same substance?
A: 2.1

Q: And the “% of baseline (weight)” value [2, 15]?
A: 108.5% and 116.7% and 112.9% and 120.7% and 110.1% and 107.6% and 114.4% and 123.3% and 115.7% and 108.4%

Q: And the volume [2, 15]?
A: 101 and 360 and 268 and 267 and 556 and 581 and 211 and 257 and 451 and 392

Q: And the “Δ % (weight)” value [2, 15]?
A: 8.5% and 16.7% and 12.9% and 20.7% and 10.1% and 7.6% and 14.4% and 23.3% and 15.7% and 8.4%

Q: And the Δ weight [2, 15]?
A: 1.8 and 3.0 and 2.6 (2×) and 3.3 and 2.0 and 1.5 (2×) and 3.9 and 3.2

Q: What about the weight ([2]; individual animals, day block 1 of 3 (day head not shown)) of the same substance?
A: 23.2 and 20.6 and 23.1 and 19.1 and 21.6 and 21.8 and 20.5 (2×) and 23.3 and 19.3

Q: And the “% of baseline (weight)” value [2, 16]?
A: 103.3% and 116.7% and 109.7% and 122.9% and 103.1% and 104.0% and 106.1% and 114.0% and 108.4% and 103.7%

Q: And the volume [2, 16]?
A: 106 and 638 (2×) and 463 and 399 and 767 and 663 and 257 and 246 and 588

Q: What about the weight [2, 16] of the same substance?
A: 22.1 and 20.7 and 22.4 and 19.5 and 20.2 and 21.1 and 19.0 (2×) and 21.8 and 18.4

Q: And the “Δ % (weight)” value [2, 16]?
A: 3.3% and 16.7% and 9.7% and 22.9% and 3.1% and 4.0% and 6.1% and 14.0% and 8.4% and 3.7%

Q: And the Δ weight [2, 16]?
A: 0.7 (2×) and 3.0 and 2.0 and 3.6 and 0.6 and 0.8 and 1.1 and 2.3 and 1.7

Q: And the “% of baseline (weight)” value [2, 17]?
A: 105.9% and 121.8% and 111.4% and 118.7% and 106.2% and 107.1% and 106.8% and 119.0% and 112.4% and 106.3%

Q: And the volume [2, 17]?
A: 92 and 955 and 891 and 568 and 1324 and 804 and 379 and 273 and 1001 and 742

Q: And the weight [2, 17]?
A: 22.7 and 21.5 and 22.8 and 18.8 and 20.8 and 21.7 and 19.1 and 19.8 and 22.6 and 18.9

Q: What about the “Δ % (weight)” value [2, 17] of the same substance?
A: 5.9% and 21.8% and 11.4% and 18.7% and 6.2% and 7.1% and 6.8% and 19.0% and 12.4% and 6.3%

Q: And the Δ weight [2, 17]?
A: 1.3 and 3.9 and 2.3 and 3.0 and 1.2 (2×) and 1.4 and 3.2 and 2.5 and 1.1

Q: And the “cancer condition of patients” value (breast cancer)?
A: improves

Q: And the “cancer condition of patients” value (myeloma)?
A: improves

Q: What about the “cancer condition of patients” value (NSCLC) of the same substance?
A: improves

Q: What about the “cancer condition of patients” value (melanoma) of the same substance?
A: improves

Q: And the “cancer condition of patients” value (renal cancer)?
A: improves
